Measured values published in article PMC8351946, “Mle046 Is a Marine Mesophilic MHETase-Like Enzyme” (Frontiers in Microbiology, 2021).

System: T1, Mle046
T1 construct: signal peptide (first 27 residues) removed; His-tagged (pColdII), tag kept; codon-optimised gene, E. coli Shuffle T7; theoretical 62 kD
Assay: HPLC ([…] nm), MHET degradation rate, non-linear Michaelis-Menten fit
Assay type: biochemical, metagenome: marine microbial consortium
Details: 40 mM sodium phosphate pH 7.5, 30°C; rate declines at 2,700 μM MHET (fit up to 2,230 μM)

With `O=C(O)c1ccc(C(=O)OCCO)cc1` [MHET] as the compound, how does the Km read?
Its Km is 2640 µM.
